These are literature values, as cited in patent US9072754B2, “Process for obtaining non-allergic propolis” (MR. GIUSEPPE MARIA RICCHIUTO, priority 2010, dated 2015).

The conditions of the data set: among the compounds of the LB-1 fraction of propolis; literature.

In the case of `CC(C)=CCOC(=O)/C=C/c1ccc(O)c(O)c1` [3-methyl-2-butenyl-caffeate, 3-methyl-2-butenyl caffeate], the allergenic effect entry is “the most allergenic effect”.
